This note sets out measurements from the NIST ThermoML archive (doi:10.1016/j.jct.2018.01.023).

The conditions of this data set: Crystal; for mass density: 101.33 kPa, X-ray diffraction; for Normal melting temperature: DTA.

± gives the expanded uncertainty stated by the source.

A word on the mass density: it is the mass of a sample divided by its volume. As to `[F-].[K+]` [potassium fluoride], the Normal melting temperature was found to be 856 ± 10 °C. For the same molecule, where the note is “293 K”, the mass density worked out at 2530 ± 12 kg/m3.

On to `[F][Ni][F]` [nickel difluoride], for which the Normal melting temperature is 1356 ± 10 °C. In addition, where the note is “293 K”, the mass density turned out to be 4808 ± 24 kg/m3.

On to `[F-].[Li+]` [lithium fluoride], for which the Normal melting temperature was determined as 845 ± 10 °C. The mass density (293 K) stood at 2634 ± 2 kg/m3. Moreover, the mass density (473 K) was determined as 2576 ± 12 kg/m3. Moreover, the mass density (573 K) stood at 2554 ± 11 kg/m3. In addition, the mass density (673 K) amounted to 2522 ± 12 kg/m3. Also, under “773 K”, the mass density was determined as 2493 ± 13 kg/m3. Moreover, the mass density (873 K) is 2455 ± 12 kg/m3. The mass density (973 K) came to 2432 ± 9 kg/m3.

As for `[F-].[F-].[F-].[K+].[Ni+2]` [nickel potassium fluoride (KNiF3)], the Normal melting temperature turned out to be 1120 ± 20 °C.
